Measured values: ChEMBL document CHEMBL5523769, “Discovery of Novel Nonpeptidic and Noncovalent Small Molecule 3CLpro Inhibitors as anti-SARS-CoV-2 Drug Candidate” (J Med Chem, 2024)
pIC50: −log10 of the molar value.

Molecular target: Replicase polyprotein 1ab (Severe acute respiratory syndrome coronavirus 2, UniProt P0DTD1)

| Compound | pIC50 |
| --- | --- |
| O=C(C1CN(c2ccc(Cl)c(Cl)c2)CCN1C(=O)c1cc(=O)[nH]c2ccccc12)N1CCC2(CC1)COC2 (stereo not given) | 5.65 |
| O=C1CC2CN(C(=O)C3CN(c4ccc(Cl)c(Cl)c4)CCN3C(=O)c3cc(=O)[nH]c4ccccc34)CC2C1 (stereo not given) | 5.73 |
| COc1ccc2[nH]c(=O)cc(C(=O)N[C@H]3CCC[C@H]3Nc3c(C(=O)N4CCN(C)CC4)cc(C4CC4)cc3[N+](=O)[O-])c2c1 | 7.62 |
| CN1CCN(C(=O)c2cc(C3CC3)cc([N+](=O)[O-])c2N[C@@H]2CCC[C@@H]2NC(=O)c2cc(=O)[nH]c3c(F)cccc23)CC1 | 7.55 |
| CC1(C)C2CN(C(=O)C3CN(c4ccc(Cl)c(Cl)c4)CCN3C(=O)c3cc(=O)[nH]c4ccccc34)CC21 (stereo not given) | 5.35 |
| O=C(NCCC(F)(F)F)[C@@H]1CN(c2ccc(Cl)c(Cl)c2)CCN1C(=O)c1cc(=O)[nH]c2ccccc12 | 6.82 |
| O=C(N[C@H]1CCCC[C@H]1Nc1c(C(=O)N2CCOCC2)cc(Br)cc1[N+](=O)[O-])c1cc(=O)[nH]c2cc(F)ccc12 | 7.41 |
| CNC(=O)c1cc(Br)cc([N+](=O)[O-])c1NC1CCN(C(=O)c2cc(=O)[nH]c3ccccc23)C1 (stereo not given) | 6.71 |
| CNC(=O)c1cccc([N+](=O)[O-])c1N[C@@H]1CCCC[C@@H]1NC(=O)c1cc(=O)[nH]c2ccccc12 | 5.91 |
| O=C(NCCC(F)(F)F)[C@H]1CN(c2ccc(Cl)c(Cl)c2)CCN1C(=O)c1cc(=O)[nH]c2ccccc12 | 6.27 |
| CCCCNC(=O)C1CN(c2ccc(Cl)c(Cl)c2)CCN1C(=O)c1cc(=O)[nH]c2ccccc12 (stereo not given) | 6.24 |
| O=C1CCN(C(=O)C2CN(c3ccc(Cl)c(Cl)c3)CCN2C(=O)c2cc(=O)[nH]c3ccccc23)CC1 (stereo not given) | 5.48 |
| COc1ccc2[nH]c(=O)cc(C(=O)N[C@H]3CCCC[C@H]3Nc3c(C(=O)N4CCOCC4)cc(Br)cc3[N+](=O)[O-])c2c1 | 7.53 |
| O=C1CC2(CCN(C(=O)C3CN(c4ccc(Cl)c(Cl)c4)CCN3C(=O)c3cc(=O)[nH]c4ccccc34)CC2)C1 (stereo not given) | 5.89 |
| O=C(N[C@@H]1CCC[C@@H]1Nc1ccc(Cl)c(Cl)c1)c1cc(=O)[nH]c2ccccc12 | < 5.00 |
| O=C(c1cc(=O)[nH]c2ccccc12)N1CCN(c2ccc(Cl)c(Cl)c2)C[C@@H]1CC1CCCCC1 | < 4.70 |
| O=C(NCC1CCCC1)C1CN(c2ccc(Cl)c(Cl)c2)CCN1C(=O)c1cc(=O)[nH]c2ccccc12 (stereo not given) | 6.55 |
| O=C(N[C@H]1CCC[C@H]1Nc1c(C(=O)N2CCOCC2)cc(C2CC2)cc1[N+](=O)[O-])c1cc(=O)[nH]c2ccccc12 | 7.63 |
| CN1CCN(C(=O)C2CN(c3ccc(Cl)c(Cl)c3)CCN2C(=O)c2cc(=O)[nH]c3ccccc23)CC1 (stereo not given) | 5.88 |
| CN1CCN(C(=O)c2cc(Br)cc([N+](=O)[O-])c2N[C@@H]2CCC[C@@H]2NC(=O)c2cc(=O)[nH]c3c(F)cccc23)CC1 | 7.54 |
| COc1ccc2[nH]c(=O)cc(C(=O)N[C@H]3CCC[C@H]3Nc3c(C(=O)N4CCOCC4)cc(C4CC4)cc3[N+](=O)[O-])c2c1 | 7.69 |
| O=C(NCCCN1CCOCC1)C1CN(c2ccc(Cl)c(Cl)c2)CCN1C(=O)c1cc(=O)[nH]c2ccccc12 (stereo not given) | 5.87 |
| O=C(NCC1CCCCC1)C1CN(c2ccc(Cl)c(Cl)c2)CCN1C(=O)c1cc(=O)[nH]c2ccccc12 (stereo not given) | 6.36 |
| O=C(NCCC1CCCC1)C1CN(c2ccc(Cl)c(Cl)c2)CCN1C(=O)c1cc(=O)[nH]c2ccccc12 (stereo not given) | 6.04 |
| COc1ccc2[nH]c(=O)cc(C(=O)N[C@H]3CCCC[C@H]3Nc3c(C(=O)N4CCN(C)CC4)cc(Br)cc3[N+](=O)[O-])c2c1 | 7.74 |
| O=C(NCC1CCC1)C1CN(c2ccc(Cl)c(Cl)c2)CCN1C(=O)c1cc(=O)[nH]c2ccccc12 (stereo not given) | 6.52 |
| O=C(NCC1CC1)C1CN(c2ccc(Cl)c(Cl)c2)CCN1C(=O)c1cc(=O)[nH]c2ccccc12 (stereo not given) | 6.47 |
| O=C(NCC1CCCO1)C1CN(c2ccc(Cl)c(Cl)c2)CCN1C(=O)c1cc(=O)[nH]c2ccccc12 (stereo not given) | 6.46 |
| CN1CCN(C(=O)c2cc(C3CC3)cc([N+](=O)[O-])c2N[C@@H]2CCC[C@@H]2NC(=O)c2cc(=O)[nH]c3ccccc23)CC1 | 7.60 |
| CNC(=O)c1cc(Br)cc([N+](=O)[O-])c1N[C@H]1CCC[C@H]1NC(=O)c1cc(=O)[nH]c2ccccc12 | 7.29 |
